Experimental data as given in patent US20180161388A1, “SUBSTANCE P, MAST CELL DEGRANULATION INHIBITORS, AND PERIPHERAL NEUROPATHY” (Beth Israel Deaconess Medical Center, Inc., priority 2015, published 2018).
“Also recorded” adds a separate entry of the source. Where no end group is shown, it is not given here.

How the values were obtained:
[1] = tested on: mast cells (MC); assay: Toluidine blue count of degranulated mast cells in dorsal skin biopsies of STZ-DM mice; type: in vivo; conditions: STZ-DM C57Bl6 mice, 8-weeks DM, ten days intraperitoneal treatment
Method: The number of intact or non-degranulated and degranulated MC in dorsal skin biopsies from non-DM and STZ-DM C57B16 mice with 8-weeks DM were evaluated by toluidine blue staining. Sections were stained metachromatically with 0.1% toluidine blue, pH 2 (cytoplasmic granules appear purple on a blue background). […] See e.g., J Peripher Nery Syst 2008; 13:218-27, Handbook of clinical neurology 2013; 115:115-36, Immunol Rev 2007; 217:65-78, Proc Natl Acad Sci USA 2006; 103:7759-64, and Nature 1982; 297:229-31. Non-DM and STZ-DM mice were also treated for ten days intraperitoneally with the MC stabilizer disodium cromoglycate (DSCG). […] However, the number of extensively degranulated MC was increased whereas the number of non-degranulated cells was reduced in STZ-DM mice compared to the non-DM controls.

[2] = tested on: M1 and M2 macrophages; assay: M1/M2 macrophage ratio in skin after 10-day intraperitoneal DSCG; type: in vivo, mice; conditions: measured ten days after treatment completion
Method: The number of HLA-DR^+/CD68^+ (M1−) and CD206/CD68^+ (M2−) macrophages in the skin of DM patients and non-DM subjects were evaluated by immunofluorescence following previously defined methods. See e.g., J Peripher Nery Syst 2008; 13:218-27, Handbook of clinical neurology 2013; 115:115-36, Immunol Rev 2007; 217:65-78, Proc Natl Acad Sci USA 2006; 103:7759-64, and Nature 1982; 297:229-31. […] The gene expression of M1-associated pro-inflammatory cytokines, such as TNF-α (FIG. 4, panel a) and IL-1β (FIG. 4, panel b), was also elevated in the foot skin of diabetes mellitus patients, whereas the M2-associated anti-inflammatory cytokine IL-10 was reduced (FIG. 4, panel c).
Using the same methods as in the human samples described above, an increased M1/M2 ratio in C57BL/6J STZ-DM mice was observed. […] Both non-DM and STZ-DM KO mice and their normal littermates were tested.
The effect of a 10-day disodium cromoglycate (DSCG) intraperitoneal administration was evaluated in non-DM and STZ-DM C57B16 mice that were also tested for their wound healing capacity.

[3] = tested on: intraepidermal nerve fibers; assay: Intraepidermal nerve fiber density (IENFD) in normal skin adjacent to wounds; type: in vivo, mice
Method: In a blinded mode, the IENFD in normal skin areas adjacent to wounds in non-DM and DM not-treated and treated with topical SP application for a 10-day period as described above (FIGS. 13 and 14) was evaluated. […] Similar results were found in preliminary studies that evaluated the effect of MC stabilization with DSCG. More specifically, DSCG treatment in two DM mice tended to have a beneficial effect in IENFD (151±55 fibers/mm) compared to four non-treated DM mice (55±17, p<0.05). Initial observations in TAC1KO mice also indicated reduced IENFD (28±12, n=2 mice) that improved in a similar way as with the previous experiments following SP treatment (41±16, n=2).

[4] = tested on: 6 mm excisional wounds; assay: Daily topical SP in 6 mm excisional wounds: IL-6 expression and M1/M2 ratio; type: in vivo, mice
Excerpt: Daily topical Substance P (SP) application in 6 mm excisional wounds created at the back of non-DM and STZ-DM mice increased the IL-6 expression and M1/M2 ratio three days after wounding, imitating the acute inflammatory phase of wound healing in acute wounds (FIG. 12). However, at Day-10, SP reduced both these inflammatory factors in STZ-DM mice, which was increased when compared to non-DM mice.

[5] = tested on: wounds; assay: Topical wound SP treatment in MC deficient mice (wound healing); type: in vivo; conditions: compared with WT mice
Excerpt: Combined topical treatment with SP and an MC stabilization agent should have an additive, if not synergistic, effect in preventing and reversing SFN.

[6] = STZ-DM mice, Day-10, listed as SP
[7] = non-DM and STZ-DM mice, three days after wounding
[8] = non-DM and STZ-DM mice, three days after wounding, listed as SP

Molecule	number of degranulated MC in skin [1]	M1/M2 macrophage ratio ([2]; STZ-DM C57Bl6 mice)	M1/M2 macrophage ratio ([2]; non-DM C57Bl6 mice)	IENFD ([3]; DM mice treated with DSCG (two mice), preliminary study, non-treated DM 55±17)	IENFD ([3]; DM mice, topical application for 10 days, periwound normal skin, listed as SP)	IENFD ([3]; TAC1KO mice after SP treatment (n=2), initial observations, untreated 28±12)	IENFD ([3]; non-DM mice, topical application for 10 days, periwound normal skin, listed as SP)	IL-6 expression in wounds [4, 6]	M1/M2 ratio in wounds [4, 6]	IL-6 expression in wounds [4, 7]	M1/M2 ratio in wounds [4, 7]	IL-6 expression in wounds [4, 8]	M1/M2 ratio in wounds [4, 8]	effect on wound healing [5]
O=C([O-])c1cc(=O)c2c(OCC(O)COc3cccc4oc(C(=O)[O-])cc(=O)c34)cccc2o1.[Na+].[Na+] [DSCG, disodium cromoglycate]	effectively reduce the number of degranulated cells	drastically reduces it in STZ-DM to normal levels; also recorded: reduced the ratio to levels similar to the non-DM mice; also recorded: reduces the M1/M2 ratio to normal levels	no effect	151±55 fibers/mm	–	–	–	–	–	–	–	–	–	–
Substance P (RPKPQQFFGLM-NH2; ends and bridges not checked; UniProt P20366 58-68, looked up) [neuropeptide Substance P (SP), acts through the NK1 receptor]	–	–	–	–	returned to normal levels; also recorded: increased IENFD to levels similar to the non-DM mice	41±16 fibers/mm	did not affect IENFD; also recorded: no obvious effect	reduced the chronic inflammation	reduced the chronic inflammation	increased	increased	induced an acute inflammatory response	induced an acute inflammatory response	lacks the beneficial effects
